Measured values taken from patent US20110237629A1, “AMINO ACID ESTER PRODRUGS AND THE USE THEREOF” (Bayer Schering Pharma Aktiengesellschaft, priority 2008, published 2011).
Where a name gives a salt, the structure may show the parent alone.

Tests used:
Type in all cases: physicochemical
[1] = Stability in buffer at various pH values
Protocol: 0.3 mg of the test substance is weighed into a 2 ml HPLC vial and 0.5 ml of acetonitrile or acetonitrile/DMSO (9:1) is added. The substance is dissolved by putting the sample vessel in an ultrasonic bath for about 10 seconds. Then 0.5 ml of the respective buffer solution is added, and the sample is again treated in the ultrasonic bath.
(Buffer) solutions employed:
pH 4: 1 liter of Millipore water is adjusted to pH 4.0 with 1 N hydrochloric acid;
pH 5: 0.096 mol of citric acid and 0.2 mol of sodium hydroxide ad 1 liter of water;
pH 7.4: 90.0 g of sodium chloride, 13.61 g of potassium dihydrogen phosphate and 83.35 g of 1 N sodium hydroxide solution are made up to 1 liter with water; this solution is then further diluted 1:10 with Millipore water.
pH 8: 0.013 mol of borax and 0.021 mol of hydrochloric acid ad 1 liter of water.
5 μl portions of the test solution are analyzed by HPLC for their content of unchanged test substance, and of basic mother substance of the formula (A) formed, every hour over a period of 24 hours at 37° C. The percentage areas of the appropriate peaks are used for quantification.
HPLC method for example 1:
(§1) Agilent 1100 with DAD (G1315B), binary pump (G1312A), autosampler (G1329A), column oven (G1316A), thermostat (G1330B); column: Kromasil 100 C18, 125 mm×4 mm, 5 μm; column temperature: 30° C.; eluent A: water+5 ml perchloric acid/liter, eluent B: acetonitrile; gradient: 0 min 90% A→2.0 min 70% A→18.0 min 70% A 20.0 min 10% A→21.0 min 10% A→23.0 min 90% A→26.0 min 90% A; flow rate: 2.0 ml/min;
HPLC method for example 3:
as §1, with “(G1314A),” for “(G1315B),”, “(G1330A);” for “(G1330B);”, “64%” for “70%”, “64% A→20.0” for “70% A 20.0”, “ml/min UV detection: 294 nm.” for “ml/min;”
HPLC method for example 11:
as §1, with “ml of” for “ml”, “64%” for “70%”, “64% A→20.0” for “70% A 20.0”, “ml/min; UV detection: 294 nm.” for “ml/min;”
HPLC method for example 14:
Agilent 1100 with DAD (G1315B), binary pump (G1312A), autosampler (G1329A), column oven (G1316A), thermostat (G1330B); column: Kromasil 100 C18, 250 mm×4 mm, 5 μm; column temperature: 30° C.; eluent A: water+5 ml of perchloric acid/liter, eluent B: acetonitrile; gradient: 0 min 90% A→7.0 min 52% A→18.0 min 52% A→20.0 min 10% A→21.0 min 10% A→23.0 min 90% A -4 26.0 min 90% A; flow rate: 2.0 ml/min; UV detection: 288 nm.
HPLC method for example 18:
Agilent 1100 with DAD (G1315A), binary pump (G1312A), autosampler (G1329A), column oven (G1316A), thermostat (G1330A); column: Kromasil 100 C18, 125 mm×4 mm, 5 μm; column temperature: 30° C.; eluent A: water+5 ml of perchloric acid/liter, eluent B: acetonitrile; gradient: 0 min 90% A→6.0 min 61% A→18.0 min 61% A→20.0 min 10% A→21.0 min 10% A→23.0 min 90% A→26.0 min 90% A; flow rate: 2.0 ml/min; UV detection: 294 nm.
The ratios of the peak areas (F) at the respective time points in relation to the peak areas at the starting time are shown in Table 3 for representative exemplary embodiments: […]

[2] = Determination of the solubility (suspension shaken 24 h at room temperature, HPLC of supernatant); settings: thermodynamic from solid
Protocol: The test substance is suspended in water or dilute hydrochloric acid (pH 4) or in 5% strength aqueous dextrose solution. This suspension is shaken at room temperature for 24 h. After ultracentrifugation at 224 000 g for 30 min, the supernatant is diluted with DMSO and analysed by HPLC. A two-point calibration plot of the test compound in DMSO is used for quantification.
Agilent 1100 with DAD (G1315A), quat. Pump (G1311A), autosampler CTC HTS PAL, degasser (G1322A) and column thermostat (G1316A); column: Phenomenex Gemini C18, 5 μm, 50 mm×2 mm; temperature: 40° C.; eluent A: water/phosphoric acid pH 2, eluent B: acetonitrile; flow rate: 0.7 ml/min; gradient: 0-0.5 min 85% A, 15% B; ramp 0.5-3 min 10% A, 90% B; 3-3.5 min 10% A, 90% B; ramp 3.5-4 min 85% A, 15% B; 4-5 min 85% A, 15% B.
Agilent 1100 with DAD (G1315A), quat. pump (G1311A), autosampler CTC HTS PAL, degasser (G1322A) and column thermostat (G1316A); column: VDSoptilab Kromasil 100 C18, 3.5 μm, 60 mm×2.1 mm; temperature: 30° C.; eluent A: water+5 ml of perchloric acid/liter, eluent B: acetonitrile; flow rate: 0.75 ml/min; gradient: 0-0.5 min 98% A, 2% B; ramp 0.5-4.5 min 10% A, 90% B; 4.5-6 min 10% A, 90% B; ramp 6.5-6.7 min 98% A, 2% B; 6.7-7.5 min 98% A, 2% B.
The solubilities of representative exemplary embodiments in dilute hydrochloric acid (pH 4) are shown in Table1: […]

[3] = as above; settings: 0.1 M hydrochloric acid, simulated gastric fluid, thermodynamic from solid
[4] = saline or isotonic, 5% strength aqueous dextrose solution

| Structure (SMILES) | % test substance after 4 h [F(t = 4 h) × 100/F(t = 0 h)] ([1]; pH 4, 37° C.) [%] | % test substance after 24 h [F(t = 24 h) × 100/F(t = 0 h)] ([1]; pH 4, 37° C.) [%] | % test substance after 4 h [F(t = 4 h) × 100/F(t = 0 h)] ([1]; pH 7.4, 37° C.) [%] | % test substance after 24 h [F(t = 24 h) × 100/F(t = 0 h)] ([1]; pH 7.4, 37° C.) [%] | solubility at 24 h [2, 4] [µg/mL] | other results |
| --- | --- | --- | --- | --- | --- | --- |
| N#Cc1c(N)nc(SCc2coc(-c3ccc(Cl)cc3)n2)c(C#N)c1-c1ccc(OC[C@H](O)CO)cc1 [Example 8A, 2-Amino-6-({[2-(4-chlorophenyl)-1,3-oxazol-4-yl]methyl}sulfanyl)-4-(4-{[(2R)-2,3-dihydroxypropyl]oxy}phenyl)pyridine-3,5-dicarbonitrile, reference compound] | – | – | – | – | < 1.2 | solubility at 24 h [3]: < 0.1 µg/mL |
| C[C@@H](N)C(=O)OC[C@H](COc1ccc(-c2c(C#N)c(N)nc(SCc3coc(-c4ccc(Cl)cc4)n3)c2C#N)cc1)OC(=O)[C@@H](C)N [Example 9, (2S)-3-{4-[2-Amino-6-({[2-(4-chlorophenyl)-1,3-oxazol-4-yl]methyl}sulfanyl)-3,5-dicyanopyridin-4-yl]phenoxy}propane-1,2-diyl(2R,2′R)-bis(2-aminopropanoate)dihydrochloride] | – | – | – | – | – | solubility at 24 h ([2]; aqueous buffer, dilute hydrochloric acid (pH 4)): 535 µg/mL |
| C[C@H](N)C(=O)OC[C@@H](COc1ccc(-c2c(C#N)c(N)nc(SCc3coc(-c4ccc(Cl)cc4)n3)c2C#N)cc1)OC(=O)[C@H](C)N [Example 11, (2R)-3-{4-[2-Amino-6-({[2-(4-chlorophenyl)-1,3-oxazol-4-yl]methyl}sulphanyl)-3,5-dicyanopyridin-4-yl]phenoxy}propane-1,2-diyl(2S,2′S)-bis(2-aminopropanoate)dihydrochloride] | 96 | 96 | 84 | 44 | – | – |
| N#Cc1c(N)nc(SCc2coc(-c3ccc(Cl)cc3)n2)c(C#N)c1-c1ccc(OC[C@@H](COC(=O)CCCN)OC(=O)CCCN)cc1 [Example 14, (2S)-3-{4-[2-Amino-6-({[2-(4-chlorophenyl)-1,3-oxazol-4-yl]methyl}sulphanyl)-3,5-dicyanopyridin-4-yl]phenoxy}propane-1,2-diyl bis(4-aminobutanoate)dihydrochloride] | 97 | 92 | 93 | 74 | 540 | – |
| N#Cc1c(N)nc(SCc2coc(-c3ccc(Cl)cc3)n2)c(C#N)c1-c1ccc(OC[C@@H](COC(=O)CCCCCN)OC(=O)CCCCCN)cc1 [Example 15, (2S)-3-{4-[2-Amino-6-({[2-(4-chlorophenyl)-1,3-oxazol-4-yl]methyl}sulphanyl)-3,5-dicyanopyridin-4-yl]phenoxy}propane-1,2-diyl bis(6-aminohexanoate) dihydrochloride] | – | – | – | – | 830 | – |
| CC(C)[C@H](N)C(=O)OC[C@H](COc1ccc(-c2c(C#N)c(N)nc(SCc3coc(-c4ccc(Cl)cc4)n3)c2C#N)cc1)OC(=O)[C@@H](N)C(C)C [Example 16, (2S)-3-{4-[2-Amino-6-({[2-(4-chlorophenyl)-1,3-oxazol-4-yl]methyl}sulphanyl)-3,5-dicyanopyridin-4-yl]phenoxy}propane-1,2-diyl(2S,2′S)-bis(2-amino-3-methylbutanoate)bis(trifluoroacetic acid) salt] | – | – | – | – | 250 | – |

Further lines, with some results ahead:

| % test substance after 4 h [F(t = 4 h) × 100/F(t = 0 h)] ([1]; pH 4, 37° C.) [%] | % test substance after 24 h [F(t = 24 h) × 100/F(t = 0 h)] ([1]; pH 4, 37° C.) [%] | % test substance after 4 h [F(t = 4 h) × 100/F(t = 0 h)] ([1]; pH 7.4, 37° C.) [%] | % test substance after 24 h [F(t = 24 h) × 100/F(t = 0 h)] ([1]; pH 7.4, 37° C.) [%] | solubility at 24 h [2, 4] [µg/mL] | Structure (SMILES) | other results |
| --- | --- | --- | --- | --- | --- | --- |
| 99 | 99 | 93 | 67 | – | N#Cc1c(N)nc(SCc2coc(-c3ccc(Cl)cc3)n2)c(C#N)c1-c1ccc(OC[C@@H](COC(=O)CN)OC(=O)CN)cc1 [Example 3, (2S)-3-{4-[2-Amino-6-({[2-(4-chlorophenyl)-1,3-oxazol-4-yl]methyl}sulphanyl)-3,5-dicyanopyridin-4-yl]phenoxy}propane-1,2-diyl bis(aminoacetate) dihydrochloride] | – |
| – | – | – | – | > 500 | CC(C)[C@H](N)C(=O)OC[C@@H](COc1ccc(-c2c(C#N)c(N)nc(SCc3coc(-c4ccc(Cl)cc4)n3)c2C#N)cc1)OC(=O)[C@@H](N)C(C)C [Example 10, (2R)-3-{4-[2-Amino-6-({[2-(4-chlorophenyl)-1,3-oxazol-4-yl]methyl}sulphanyl)-3,5-dicyanopyridin-4-yl]phenoxy}propane-1,2-diyl(2S,2′S)-bis(2-amino-3-methylbutanoate)-dihydro-chloride] | – |
| – | – | – | – | 710 | N#Cc1c(N)nc(SCc2coc(-c3ccc(Cl)cc3)n2)c(C#N)c1-c1ccc(OC[C@@H](COC(=O)[C@@H](N)CCCCN)OC(=O)[C@@H](N)CCCCN)cc1 [Example 13, (2S)-3-{4-[2-Amino-6-({[2-(4-chlorophenyl)-1,3-oxazol-4-yl]methyl}sulphanyl)-3,5-dicyanopyridin-4-yl]phenoxy)propane-1,2-diyl(2S,2′S)-bis(2,6-diaminohexanoate)dihydrochloride] | – |
| – | – | – | – | 330 | CC(C)C[C@H](N)C(=O)OC[C@H](COc1ccc(-c2c(C#N)c(N)nc(SCc3coc(-c4ccc(Cl)cc4)n3)c2C#N)cc1)OC(=O)[C@@H](N)CC(C)C [Example 17, (2S)-3-{4-[2-Amino-6-({[2-(4-chlorophenyl)-1,3-oxazol-4-yl]methyl}sulphanyl)-3,5-dicyanopyridin-4-yl]phenoxy}propane-1,2-diyl(2S,2′S)-bis(2-amino-4-methylpentanoate)bis(trifluoroacetic acid) salt] | – |
| 100 | 95 | 95 | 72 | 240 | C[C@@H](O)[C@H](N)C(=O)OC[C@H](COc1ccc(-c2c(C#N)c(N)nc(SCc3coc(-c4ccc(Cl)cc4)n3)c2C#N)cc1)OC(=O)[C@@H](N)[C@@H](C)O [Example 18, (2S)-3-{4-[2-Amino-6-({[2-(4-chlorophenyl)-1,3-oxazol-4-yl]methyl}sulfanyl)-3,5-dicyanopyridin-4-yl]phenoxy}propane-1,2-diyl(2S,3R,2′S,3′R)-bis(2-amino-3-hydroxybutanoate)bis(trifluoroacetic acid) salt] | – |
